Measured values: patent US9951058B2, “Compound, pharmaceutically acceptable salt or optical isomer thereof, method for preparing the same, and pharmaceutical composition for prevention or treatment of viral diseases containing same as active ingredient” (Korea Research Institute of Chemical Technology, priority 2012, dated 2018)
Converted amounts (≈) assume the structure as drawn.

Columns and labels:
[1] = system: coxsackievirus B1 (Cox B1); assay: Multicycle cytopathic effect (CPE) reduction assay; format: cell-based; conditions: Enterovirus B, B1, 72 h, read-out: EC50 CoxB1
in vitro = conditions: human
poliovirus 3 (PV3) = assay: microbe, parasite or virus in culture; format: cell-based; conditions: Enterovirus C, 72 h, read-out: EC50 PV3
HRV 21 = assay: Cytopathic effect (CPE) inhibition assay; format: cell-based, human rhinovirus; conditions: Human rhinovirus sp., 72 h; host cell HeLa, 3 days, MEM/2% FBS, MTT assay; read-out: EC50 HRV 21
[2] = Cytotoxicity (CC50) in multicycle CPE reduction assay, MTS; conditions: human
HRV 14 = assay: Cytopathic effect (CPE) inhibition assay; format: cell-based, human rhinovirus; conditions: Human rhinovirus sp., HeLa, 72 h, host cell HeLa, 3 days, MEM/2% FBS, MTT assay; read-out: EC50 HRV 14
[3] = system: coxsackievirus B3 (Cox B3); assay: Multicycle cytopathic effect (CPE) reduction assay; format: cell-based; conditions: Enterovirus B, B3, 72 h, read-out: EC50 CoxB3
HRV 71 = assay: Cytopathic effect (CPE) inhibition assay; format: cell-based, human rhinovirus; conditions: Human rhinovirus sp., 72 h; host cell HeLa, 3 days, MEM/2% FBS, MTT assay; read-out: EC50 HRV 71

Compound: CC(C)c1ccc2c(c1)OC1(O)c3ccccc3C(=O)C21NC(=O)C(=O)c1c[nH]c2ccccc12 (stereo not drawn) [Example 1, N-(4b-hydroxy-7-isopropyl-10-oxo-9b, 10-dihydro-4bH-benzo[d]indeno[1,2-b]furan-9b-yl)-2-(1H-indol-3-yl)-2-oxo acetamide]
- EC50 [1]: 0.017 µg/mL (≈ 0.0364 µM)
- CC50 (in vitro): 7.91 µg/mL (≈ 17 µM)
- EC50 (poliovirus 3 (PV3)): 1.1 µg/mL (≈ 2.36 µM)
- EC50 (HRV 21): > 7.91 µg/mL
- CC50 at 3 days [2]: 8.57 µg/mL (≈ 18.4 µM)
- EC50 (HRV 14): < 1 µg/mL
- EC50 [3]: 0.061 µg/mL (≈ 0.131 µM)
- EC50 (HRV 71): > 7.91 µg/mL

Compound: CC(C)c1ccc2c(c1)OC1(O)c3ccccc3C(=O)C21NC(=O)C(=O)c1cccs1 (stereo not drawn) [Example 2, N-(4b-hydroxy-7-isopropyl-10-oxo-9b, 10-dihydro-4bH-indeno[1,2-b]benzofuran-9b-yl)-2-oxo-2-(thiopen-2-yl)acetamide]
- EC50 [1]: < 0.01 µg/mL
- CC50 (in vitro): 8.57 µg/mL (≈ 19.8 µM)
- EC50 (poliovirus 3 (PV3)): < 1 µg/mL
- EC50 (HRV 21): > 8.57 µg/mL
- CC50 at 3 days [2]: 9.02 µg/mL (≈ 20.8 µM)
- EC50 (HRV 14): < 0.1 µg/mL
- EC50 [3]: < 0.01 µg/mL
- EC50 (HRV 71): > 8.57 µg/mL

Compound: CC(C)c1ccc2c(c1)OC1(O)c3ccccc3C(=O)C21NC(=O)C(=O)Cc1ccccc1[N+](=O)[O-] (stereo not drawn) [Example 3, N-(4b-hydroxy-7-isopropyl-10-oxo-9b, 10-dihydro-4bH-indeno[1,2-b]benzofuran-9b-yl)-3-(2-nitrophenyl)-2-oxo propanamide]
- EC50 [1]: 0.013 µg/mL (≈ 0.0267 µM)
- CC50 (in vitro): 1.76 µg/mL (≈ 3.62 µM)
- EC50 (poliovirus 3 (PV3)): < 1 µg/mL
- EC50 (HRV 21): > 1.76 µg/mL
- CC50 at 3 days [2]: 2.38 µg/mL (≈ 4.89 µM)
- EC50 (HRV 14): > 1.76 µg/mL
- EC50 [3]: 0.015 µg/mL (≈ 0.0308 µM)
- EC50 (HRV 71): > 1.76 µg/mL

Compound: CC(=O)C(=O)NC12C(=O)c3ccccc3C1(O)Oc1cc(C(C)C)ccc12 (stereo not drawn) [Example 4, N-(4b-hydroxy-7-isopropyl-10-oxo-9b, 10-dihydro-4bH-indeno[1,2-b]benzofuran-9b-yl)-2-oxo propanamide]
- EC50 [1]: < 0.01 µg/mL
- CC50 (in vitro): 9.02 µg/mL (≈ 24.7 µM)
- EC50 (poliovirus 3 (PV3)): < 1 µg/mL
- EC50 (HRV 21): > 9.02 µg/mL
- CC50 at 3 days [2]: > 10 µg/mL
- EC50 (HRV 14): < 0.1 µg/mL
- EC50 [3]: < 0.01 µg/mL
- EC50 (HRV 71): > 9.02 µg/mL

Compound: CCCC(=O)C(=O)NC12C(=O)c3ccccc3C1(O)Oc1cc(C(C)C)ccc12 (stereo not drawn) [Example 5, N-(4b-hydroxy-7-isopropyl-10-oxo-9b, 10-dihydro-4bH-indeno[1,2-b]benzofuran-9b-yl)-2-oxo pentanamide]
- EC50 [1]: < 0.01 µg/mL
- CC50 (in vitro): 8.49 µg/mL (≈ 21.6 µM)
- EC50 (poliovirus 3 (PV3)): < 0.1 µg/mL
- EC50 (HRV 21): > 8.49 µg/mL
- CC50 at 3 days [2]: > 10 µg/mL
- EC50 (HRV 14): < 0.1 µg/mL
- EC50 [3]: < 0.01 µg/mL
- EC50 (HRV 71): > 8.49 µg/mL

Compound: CCCCCCC(=O)C(=O)NC12C(=O)c3ccccc3C1(O)Oc1cc(C(C)C)ccc12 (stereo not drawn) [Example 6, N-(4b-hydroxy-7-isopropyl-10-oxo-9b, 10-dihydro-4bH-indeno[1,2-b]benzofuran-9b-yl)-2-oxo octanamide]
- EC50 [1]: 0.013 µg/mL (≈ 0.0298 µM)
- CC50 (in vitro): 8.57 µg/mL (≈ 19.7 µM)
- EC50 (poliovirus 3 (PV3)): 1.23 µg/mL (≈ 2.82 µM)
- EC50 (HRV 21): > 8.57 µg/mL
- CC50 at 3 days [2]: 8.57 µg/mL (≈ 19.7 µM)
- EC50 (HRV 14): < 1 µg/mL
- EC50 [3]: 0.015 µg/mL (≈ 0.0344 µM)
- EC50 (HRV 71): > 8.57 µg/mL

Compound: CC(C)c1ccc2c(c1)OC1(O)c3ccccc3C(=O)C21NC(=O)C(=O)c1ccco1 (stereo not drawn) [Example 7, 2-(furan-2-yl)-N-(4b-hydroxy-7-isopropyl-10-oxo-9b, 10-dihydro-4bH-indeno[1,2-b]benzofuran-9b-yl)-2-oxo acetamide]
- EC50 [1]: < 0.01 µg/mL
- CC50 (in vitro): > 10 µg/mL
- EC50 (poliovirus 3 (PV3)): < 1 µg/mL
- EC50 (HRV 21): > 10 µg/mL
- CC50 at 3 days [2]: > 10 µg/mL
- EC50 (HRV 14): < 0.1 µg/mL
- EC50 [3]: < 0.01 µg/mL
- EC50 (HRV 71): > 10 µg/mL

Compound: CC(C)c1ccc2c(c1)OC1(O)c3c(cccc3[N+](=O)[O-])C(=O)C21NC(=O)C(=O)c1c[nH]c2ccccc12 (stereo not drawn) [Example 8, N-(4b-hydroxy-7-isopropyl-4-nitro-10-oxo-9b, 10-dihydro-4bH-indeno[1,2-b]benzofuran-9b-yl)-2-(1H-indol-3-yl)-2-oxo acetamide]
- EC50 [1]: 0.56 µg/mL (≈ 1.09 µM)
- CC50 (in vitro): > 10 µg/mL
- EC50 (poliovirus 3 (PV3)): 9.8 µg/mL (≈ 19.2 µM)
- EC50 (HRV 21): > 10 µg/mL
- CC50 at 3 days [2]: > 10 µg/mL
- EC50 (HRV 14): 2.31 µg/mL (≈ 4.52 µM)
- EC50 [3]: 1.82 µg/mL (≈ 3.56 µM)
- EC50 (HRV 71): > 10 µg/mL

Compound: CC(C)c1ccc2c(c1)OC1(O)c3ccccc3C(=O)C21NC(=O)C(=O)Cc1ccc(O)cc1 (stereo not drawn) [Example 9, N-(4b-hydroxy-7-isopropyl-10-oxo-9b, 10-dihydro-4bH-indeno[1,2-b]benzofuran-9b-yl)-3-(4-hydroxyphenyl)-2-oxo propanamide]
- EC50 [1]: 0.013 µg/mL (≈ 0.0284 µM)
- CC50 (in vitro): 3.76 µg/mL (≈ 8.22 µM)
- EC50 (poliovirus 3 (PV3)): < 1 µg/mL
- EC50 (HRV 21): > 3.76 µg/mL
- CC50 at 3 days [2]: 9.21 µg/mL (≈ 20.1 µM)
- EC50 (HRV 14): > 3.76 µg/mL
- EC50 [3]: 0.015 µg/mL (≈ 0.0328 µM)
- EC50 (HRV 71): > 3.76 µg/mL
